Measurements: PMC8379015, “Resistance of Mycobacterium tuberculosis to indole 4-carboxamides occurs through alterations in drug metabolism and tryptophan biosynthesis” (Cell Chemical Biology, 2021)
Values after ≈ are worked out from the molar mass of the structure shown.

Assays:
[1] = system: M. tuberculosis H37Rv mutant 5A (amiC K195∗); assay type: cell-based, Mycobacterium tuberculosis
[2] = system: M. tuberculosis H37Rv mutant 5B (amiC W238∗); assay type: cell-based, Mycobacterium tuberculosis
[3] = system: M. tuberculosis H37Rv mutant 5G (amiC S157F); assay type: cell-based, Mycobacterium tuberculosis
[4] = system: M. tuberculosis H37Rv mutant 5H (amiC + g in aa352); assay type: cell-based, Mycobacterium tuberculosis
[5] = system: M. tuberculosis H37Rv mutant 5I (amiC + g in aa352); assay type: cell-based, Mycobacterium tuberculosis
[6] = system: M. tuberculosis H37Rv mutant 5J (trpB A168V); assay type: cell-based, Mycobacterium tuberculosis
[7] = system: M. tuberculosis H37Rv mutant 5K (trpB A134V); assay type: cell-based, Mycobacterium tuberculosis
[8] = system: M. tuberculosis H37Rv mutant 5L (trpE H170R); assay type: cell-based, Mycobacterium tuberculosis
[9] = system: M. tuberculosis H37Rv mutant 5M (trpB D261G); assay type: cell-based, Mycobacterium tuberculosis
[10] = system: M. tuberculosis H37Rv mutant 5N (trpA D54G); assay type: cell-based, Mycobacterium tuberculosis
[11] = system: M. tuberculosis H37Rv mutant 5O (trpB D261G); assay type: cell-based, Mycobacterium tuberculosis
[12] = system: M. tuberculosis H37Rv recombineered trpB / trpE mutant strains; assay type: cell-based, Mycobacterium tuberculosis
[13] = system: C1-resistant mutants of M. tuberculosis; assay type: cell-based, Mycobacterium tuberculosis
[14] = system: C5R mutants of Mtb; assay type: cell-based, Mycobacterium tuberculosis
[15] = target: TrpE H170R (Mycobacterium tuberculosis, UniProt P9WFX3, H170R); assay type: biochemical
[16] = system: M. tuberculosis H37Rv overexpressing AmiC (rv2888c, Psmyc); assay type: cell-based, Mycobacterium tuberculosis

Row | Molecule | MIC [1] [µM] | MIC [2] [µM] | MIC [3] [µM] | MIC [4] [µM] | MIC [5] [µM] | MIC [6] [µM] | MIC [7] [µM] | MIC [8] [µM] | MIC [9] [µM] | MIC [10] [µM] | MIC [11] [µM] | resistance of recombineered strains [12] | cross-resistance of C1-resistant mutants [13] | also measured
1 | Nc1cccc2[nH]ccc12 [4-AI, 4-aminoindole, reference compound] | 4.68 (≈ 0.619 µg/mL) | 4.68 (≈ 0.619 µg/mL) | 4.68 (≈ 0.619 µg/mL) | 4.68 (≈ 0.619 µg/mL) | 4.68 (≈ 0.619 µg/mL) | 100 (≈ 13.2 µg/mL) | 100 (≈ 13.2 µg/mL) | 100 (≈ 13.2 µg/mL) | 100 (≈ 13.2 µg/mL) | 100 (≈ 13.2 µg/mL) | 100 (≈ 13.2 µg/mL) | resistant |  | shift in MIC [8]: approximately 4 fold; cross-resistance of amiC mutants [13]: not cross-resistant; resistance of trpABE mutants [13]: highly resistant; cross-resistance of C5R mutants [14]: no cross-resistance
2 | O=C(COc1ccccc1)Nc1cccc2[nH]ccc12 [C2, N-(1H-indol-4-yl)-2-phenoxyacetamide] | 75 (≈ 20 µg/mL) | 75 (≈ 20 µg/mL) | 75 (≈ 20 µg/mL) | 75 (≈ 20 µg/mL) | 75 (≈ 20 µg/mL) | 25 (≈ 6.66 µg/mL) | 25 (≈ 6.66 µg/mL) | 25 (≈ 6.66 µg/mL) | 25 (≈ 6.66 µg/mL) | 25 (≈ 6.66 µg/mL) | 25 (≈ 6.66 µg/mL) | resistant | cross-resistant | 
3 | O=C(Nc1cccc2[nH]ccc12)C1CCCCC1 [C3, N-(1H-indol-4-yl)cyclohexanecarboxamide] | >100 | >100 | >100 | >100 | >100 | >100 | >100 | >100 | >100 | >100 | >100 |  | cross-resistant | 
4 | O=C(Nc1cccc2[nH]ccc12)c1ccc(OCC(F)(F)F)cn1 [C4, N-(1H-indol-4-yl)-5-(2,2,2-trifluoroethoxy)picolinamide] | 75 (≈ 25.1 µg/mL) | 75 (≈ 25.1 µg/mL) | 75 (≈ 25.1 µg/mL) | 75 (≈ 25.1 µg/mL) | 75 (≈ 25.1 µg/mL) | 25 (≈ 8.38 µg/mL) | 25 (≈ 8.38 µg/mL) | 25 (≈ 8.38 µg/mL) | 25 (≈ 8.38 µg/mL) | 25 (≈ 8.38 µg/mL) | 25 (≈ 8.38 µg/mL) |  | cross-resistant | 
5 | CNS(=O)(=O)c1ccc2c(c1)CCN2C(=O)c1ccc(C)s1 [C5, reference compound] | 0.39 (≈ 0.131 µg/mL) | 0.39 (≈ 0.131 µg/mL) | 0.39 (≈ 0.131 µg/mL) | 0.39 (≈ 0.131 µg/mL) | 0.39 (≈ 0.131 µg/mL) | 0.39 (≈ 0.131 µg/mL) | 0.39 (≈ 0.131 µg/mL) | 0.39 (≈ 0.131 µg/mL) | 0.098 (≈ 0.033 µg/mL) | 0.19 (≈ 0.0639 µg/mL) | 0.19 (≈ 0.0639 µg/mL) |  |  | cross-resistance of mutants raised against C1 [13]: None of the resistant mutants raised against C1 were cross-resistant; susceptibility of one C1R mutant relative to WT [13]: more susceptible
6 | NNC(=O)c1ccncc1 [INH, isoniazid, reference compound] | 0.12 (≈ 0.0165 µg/mL) | 0.12 (≈ 0.0165 µg/mL) | 0.12 (≈ 0.0165 µg/mL) | 0.12 (≈ 0.0165 µg/mL) | 0.12 (≈ 0.0165 µg/mL) | 0.12 (≈ 0.0165 µg/mL) | 0.12 (≈ 0.0165 µg/mL) | 0.12 (≈ 0.0165 µg/mL) | 0.12 (≈ 0.0165 µg/mL) | 0.12 (≈ 0.0165 µg/mL) | 0.12 (≈ 0.0165 µg/mL) | not |  | 
7 | N[C@@H](Cc1c[nH]c2ccccc12)C(=O)O [L-Trp, L-tryptophan] |  |  |  |  |  |  |  |  |  |  |  |  |  | loss of sensitivity to allosteric inhibition, H170R vs WT [15]: 250 times
8 | N-(1H-indol-4-yl)-6-(2,2,2-trifluoroethoxy)nicotinamide [C1] | >100 | >100 | >100 | >100 | >100 | 6.25 | 6.25 | 6.25 | 6.25 | 6.25 | 6.25 | resistant |  | change in MIC on overexpression of AmiC [16]: did not result in a noticeable change in MIC; cross-resistance of C5R mutants [14]: no cross-resistance
